Assay: Pharmacokinetic study in rats after oral administration of GR extract (UHPLC-MS/MS of plasma)
Type: in vivo, Sprague-Dawley rats
Details: for plasma concentration relative to LLOQ: rat plasma following gavage of GR extract; for AUC(0-inf) / AUC(0-t) / Cmax / Tmax / k el / half-life: male, Sprague-Dawley, po; for AUC(0-inf) / AUC(0-t) / Cmax / Tmax / k el / half-life / CL (clearance) / T1/2 / Vz (apparent volume of distribution): rat plasma, GR extract 9.6 g/kg intragastric gavage, mean ± SD, n = 6; for k el: read-out: λz (terminal elimination rate constant) (converted); for half-life: rat, plasma, 9.6 g/kg
Procedure: To each 100 μL plasma sample, 20 μL of methanol and 20 μL of IS (astragalin, 1 μg/mL) were added and vortexed for 1 min. Extraction was carried out with 800 μL of methanol, followed by vortexing for 5 min at room temperature. The sample was centrifuged at 12,000× g for 10 min. Subsequently, 750 µL of supernatant was transferred to a fresh tube and completely dried under flow nitrogen. The residue was reconstituted in 150 μL of 50% methanol (v/v), vortexed for 5 min, and centrifuged for 10 min. Finally, the resulting supernatant was injected into the UHPLC-MS/MS instrument.
In this study, six SPF-grade male Sprague-Dawley rats (six weeks old, 220 ± 10 g), supplied by Beijing HUAFUKANG Bioscience Co., Inc. (Beijing, China), were housed for seven days under controlled conditions (23 ± 2 °C, 50 ± 10% relative humidity) with ad libitum access to food and water. All rats underwent a 12 h fasting period before dosing, but maintained free access to water. This study’s animal care protocols and experimental procedures adhered to institutional policies and were formally authorized by the Animal Ethics Review Committee of Tianjin University of Traditional Chinese Medicine (Tianjin, China; Ref. TCM-LAEC2025003w1430). Each rat received a GR suspension at a dosage of 9.6 g/kg via intragastric gavage. Prior to dosing, 0.2 mL of blood was drawn from the retro-orbital plexus into a heparin-coated tube. Subsequent samples were collected at 0, 0.03, 0.08, 0.17, 0.25, 0.5, 0.75, 1, 2, 4, 6, 8, 12, 24, 36, and 48 h post-dose. Plasma was separated by centrifugation (6000× g, 10 min, 4 °C) and stored at −80 °C until further analysis.
Plasma concentrations of the fourteen target analytes were determined using the MassHunter Workstation (Agilent, USA; ver. B.09.00). Pharmacokinetic analysis was conducted with DAS software (Medical College of Wannan, Wuhu, Anhui, China; v. 3.0) using non-compartmental model to calculate pharmacokinetic parameters, including Cmax, Tmax, AUC(0–t), AUC(0–∞), clearance (CL), the apparent volume of distribution (Vz), and terminal elimination rate constant (λz) for each analyte. All parameters were summarized as mean ± standard deviation (SD) (n = 6), with the SD representing inter-individual variability in the pharmacokinetic behavior.

AUC(0-inf) | AUC(0-t) | Cmax | Tmax | k el | half-life | CL (clearance) | Vz (apparent volume of distribution) | Compound | plasma concentration relative to LLOQ | T1/2
– | – | – | – | – | – | – | – | O=Cc1ccc(O)c(O)c1 [3,4-Dihydroxybenzaldehyde] | below the LLOQ at the majority of time points | –
– | – | – | – | – | – | – | – | Nc1ncnc2c1ncn2[C@@H]1O[C@H](CO)[C@@H](O)[C@H]1O [Adenosine] | below the LLOQ at the majority of time points | –
– | – | – | – | – | – | – | – | COc1cc2c(cc1OC)[C@@H](Cc1ccc(Oc3cc(C[C@@H]4c5cc(OC)c(OC)cc5CCN4C)ccc3O)cc1)N(C)CC2 [Dauricine] | below the LLOQ at the majority of time points | –
59 ± 18.5 ng·h/mL | 59 ± 18.5 ng·h/mL | 25 ± 14.2 ng/mL | 0.5 ± 0.02 h | 6.11e-05 s⁻¹ | 2.74 ± 0.42 h | 6170.7 ± 2057.5 mL/min/kg | 1588.63 ± 636.70 L/kg | NC(=O)c1cccnc1 [Nicotinamide] | – | –
– | – | – | – | – | – | – | – | COc1ccc(-c2cc(=O)c3c(OC)c(OC)c(OC)c(OC)c3o2)cc1OC [Nobiletin] | below the LLOQ at the majority of time points | –
460 ± 222 ng·h/mL | 460 ± 222 ng·h/mL | 319 ± 157 ng/mL | 0.1 ± 0.06 h | 7.22e-05 s⁻¹ | 2.67 ± 0.26 h | 899.2 ± 438.3 mL/min/kg | 215.10 ± 119.59 L/kg | O=C(O)CC(O)(CC(=O)OCc1ccc(O[C@@H]2O[C@H](CO)[C@@H](O)[C@H](O)[C@H]2O)cc1)C(=O)OCc1ccc(O[C@@H]2O[C@H](CO)[C@@H](O)[C@H](O)[C@H]2O)cc1 (some centres unmarked) [Parishin B] | – | –
13100 ng·h/mL | 11600 ng·h/mL | 2350 ± 1100 ng/mL | 0.75 ± 0.01 h | 1.39e-05 s⁻¹ | ~8 h | 26.3 ± 5.83 mL/min/kg | 41.00 ± 29.24 L/kg | O=C(O)CC(O)(CC(=O)OCc1ccc(O[C@@H]2O[C@H](CO)[C@@H](O)[C@H](O)[C@H]2O)cc1)C(=O)O (some centres unmarked) [Parishin E] | – | 8.08 ± 3.33 h
572 ± 271 ng·h/mL | 531 ± 256 ng·h/mL | 210 ± 92.2 ng/mL | 0.22 ± 0.07 h | 1.39e-05 s⁻¹ | 3.62 ± 0.26 h | 676.3 ± 244.2 mL/min/kg | 808.82 ± 409.11 L/kg | O=C(CC(O)(CC(=O)OCc1ccc(O[C@@H]2O[C@H](CO)[C@@H](O)[C@H](O)[C@H]2O)cc1)C(=O)OCc1ccc(O[C@@H]2O[C@H](CO)[C@@H](O)[C@H](O)[C@H]2O)cc1)OCc1ccc(O[C@@H]2O[C@H](CO)[C@@H](O)[C@H](O)[C@H]2O)cc1 [ParishinA, Parishin A] | – | –
– | – | – | – | – | – | – | – | COc1cc(C=O)cc(OC)c1O [Syringaldehyde] | below the LLOQ at the majority of time points | –
59.1 ± 21 ng·h/mL | 56.7 ± 23.1 ng·h/mL | 22.5 ± 3.04 ng/mL | 0.25 ± 0.01 h | 7.78e-05 s⁻¹ | 5.86 ± 2.99 h | 6285.8 ± 2280.5 mL/min/kg | 4220.87 ± 5603.54 L/kg | O=Cc1ccc(O)cc1 [p-Hydroxybenzaldehyde] | – | –
1600 ± 384 ng·h/mL | 1580 ± 381 ng·h/mL | 442 ± 147 ng/mL | 0.11 ± 0.05 h | 4.44e-05 s⁻¹ | 6.21 ± 3.33 h | 218 ± 47.2 mL/min/kg | 116.74 ± 60.67 L/kg | O=C(O)c1ccc(O)cc1 [p-Hydroxybenzoic acid] | – | –
674000 ng·h/mL | 672000 ng·h/mL | 90500 ng/mL | 1.63 ± 0.59 h | 3.89e-05 s⁻¹ | 5.31 ± 1.55 h | 0.5 ± 0.17 mL/min/kg | 0.24 ± 0.10 L/kg | OCc1ccc(O)cc1 [p-Hydroxybenzyl alcohol] | – | –

Compound | AUC(0-inf) | AUC(0-t) | Cmax | Tmax | k el | half-life | CL (clearance) | Vz (apparent volume of distribution) | plasma concentration relative to LLOQ | T1/2
OCc1ccc(O[C@@H]2O[C@H](CO)[C@@H](O)[C@H](O)[C@H]2O)cc1 [Gastrodin] | 145000 ng·h/mL | 143000 ng·h/mL | 31500 ng/mL | 1.5 ± 0.55 h | 1.67e-05 s⁻¹ | ~8 h | 2.33 ± 0.5 mL/min/kg | 4.29 ± 3.24 L/kg | – | 8.30 ± 1.14 h
